Legend:
Test in all cases: drug sensitivity score (DSS2, normalised partial AUC of dose-response, 72 h CellTiter-Glo viability) (DSS (dimensionless)); higher = more sensitive (stronger growth inhibition / cytotoxicity); extreme values may be limits of the assay
[1] = system: 22Rv1
How it was run: (§1)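 The drug sensitivity score reported here is a partial area under the fitted logistic dose–response curve, divided by the log of the curve's upper asymptote and computed in BREEZE; higher values denote greater sensitivity. Low-passage primary prostate cancer-associated fibroblasts, PF179T, WPMY-1, LNCaP and 22Rv1 cells were seeded into 384-well plates preloaded with compounds at five doses across a 10,000-fold range. CellTiter-Glo 2.0 luminescence gave viability at 72 h, scaled to vehicle and positive-control wells.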

[2] = system: CAF#1 (primary prostate cancer-associated fibroblasts of myCAF-like type)
How it was run: as §1

[3] = system: CAF#2 (primary prostate cancer-associated fibroblasts of iCAF-like type)
How it was run: as §1

[4] = system: CAF#3 (primary prostate cancer-associated fibroblasts of myCAF-like type)
How it was run: as §1

[5] = system: CAF#4 (primary prostate cancer-associated fibroblasts of iCAF-like type)
How it was run: as §1

[6] = system: CAF#5 (primary prostate cancer-associated fibroblasts of myCAF-like type)
How it was run: as §1

[7] = system: CAF#6 (primary prostate cancer-associated fibroblasts of iCAF-like type)
How it was run: as §1

[8] = system: CAF#7 (primary prostate cancer-associated fibroblasts of myCAF-like type)
How it was run: as §1

[9] = system: LNCAP
How it was run: as §1

[10] = system: PF179T
How it was run: as §1

[11] = system: WPMY-1
How it was run: as §1

Compound | drug sensitivity score [1] | drug sensitivity score [2] | drug sensitivity score [3] | drug sensitivity score [4] | drug sensitivity score [5] | drug sensitivity score [6] | drug sensitivity score [7] | drug sensitivity score [8] | drug sensitivity score [9] | drug sensitivity score [10] | drug sensitivity score [11]
FC(F)(F)c1ccc(/C=C/c2nc(COc3ccc(CCCCn4ccnn4)cc3)co2)cc1 [Mubritinib] (tested concentration range 0.1-1000 nM) | 5.8 | 0 | 0 | 0 | 0 | 0 | 0 | 0 | 11.7 | 9.7 | 12
Cc1cc(OCc2nnc(SC3CCCC3)n2-c2cccnc2)ccc1-c1ccc(S(C)(=O)=O)cc1 [NMS-873] (tested concentration range 1-10000 nM) | 12.4 | 4.8 | 8.5 | 8 | 5.7 | 5.6 | 5.9 | 5.1 | 18.4 | 15 | 14.6
Cc1ccc(C(=O)Nc2cccc(C(F)(F)F)c2)cc1Nc1nc(-c2cccnc2)nc2c1cnn2C [NVP-BHG712] (tested concentration range 1-10000 nM) | 5 | 0 | 3.2 | 0 | 1.6 | 1 | 0 | 0 | 9.6 | 0.6 | 9
CN[C@@H](C)C(=O)N[C@H](C(=O)N1CCC[C@H]1c1nc(C(=O)c2ccc(F)cc2)cs1)C1CCCCC1 [NVP-LCL161] (tested concentration range 2.5-25000 nM) | 3.4 | 0 | 0.4 | 1.2 | 0.3 | 0 | 1.9 | 2 | 3.7 | 0 | 3
CC(=O)c1cc2c(o1)C(=O)c1ccccc1C2=O [Napabucasin] (tested concentration range 2-20000 nM) | 17.7 | 11.2 | 22.6 | 16.4 | 22.4 | 11.7 | 16.8 | 9.5 | 19.5 | 21 | 19.8
CC1(C)CCC(c2ccc(Cl)cc2)=C(CN2CCN(c3ccc(C(=O)NS(=O)(=O)c4ccc(N[C@H](CCN5CCOCC5)CSc5ccccc5)c(S(=O)(=O)C(F)(F)F)c4)cc3)CC2)C1 [Navitoclax] (tested concentration range 1-10000 nM) | 0 | 3 | 0 | 0 | 7.5 | 2.3 | 3.1 | 0.7 | 7.5 | 0 | 0.6
CN1C(=O)N[C@H](Cc2c[nH]c3c(Cl)cccc23)C1=O [Necrostatin 2] (tested concentration range 1-10000 nM) | 0 | 0 | 0 | 0 | 0 | 0 | 0 | 0 | 0 | 0 | 0
O=c1ncn2nc(Sc3ccc(F)cc3F)ccc2c1-c1c(Cl)cccc1Cl [Neflamapimod] (tested concentration range 1-10000 nM) | 0.8 | 0 | 0 | 0 | 0 | 0 | 0 | 0 | 1.2 | 0 | 0
COc1nc(N)nc2c1ncn2[C@@H]1O[C@H](CO)[C@@H](O)[C@@H]1O [Nelarabine] (tested concentration range 1-10000 nM) | 0 | 0 | 0 | 0 | 0 | 0 | 0 | 0 | 0 | 0 | 0
CCOc1cc2ncc(C#N)c(Nc3ccc(OCc4ccccn4)c(Cl)c3)c2cc1NC(=O)/C=C/CN(C)C [Neratinib] (tested concentration range 0.1-1000 nM) | 2.4 | 1.6 | 2.1 | 4.6 | 2.5 | 0 | 3.1 | 4.2 | 3.6 | 2.4 | 2
Cc1cn(-c2cc(NC(=O)c3ccc(C)c(Nc4nccc(-c5cccnc5)n4)c3)cc(C(F)(F)F)c2)cn1 [Nilotinib] (tested concentration range 1-10000 nM) | 2.1 | 0.8 | 0.8 | 0 | 1.7 | 0.2 | 0 | 0 | 5.3 | 0 | 0
CC1(C)NC(=O)N(c2ccc([N+](=O)[O-])c(C(F)(F)F)c2)C1=O [Nilutamide] (tested concentration range 1-10000 nM) | 0 | 0.1 | 0.1 | 0 | 2.7 | 0 | 0 | 0 | 2.9 | 0 | 0
COC(=O)c1ccc2c(c1)NC(=O)/C2=C(\Nc1ccc(N(C)C(=O)CN2CCN(C)CC2)cc1)c1ccccc1 [Nintedanib] (tested concentration range 1-10000 nM) | 8.4 | 5.4 | 8.6 | 9.3 | 7 | 5.5 | 7.7 | 10.5 | 9.2 | 0 | 5.7
NC(=O)c1cccc2cn(-c3ccc([C@@H]4CCCNC4)cc3)nc12 [Niraparib] (tested concentration range 1-10000 nM) | 7.5 | 1.5 | 3.9 | 3.2 | 2.5 | 1.7 | 1.1 | 3.7 | 5.5 | 5.8 | 4.4
Cc1ccccc1CN1C(=O)C2=C(CCN(Cc3ccccc3)C2)N2CCN=C12 [ONC201] (tested concentration range 2.5-25000 nM) | 13.9 | 3.6 | 6.2 | 2.3 | 3.4 | 3.1 | 4.1 | 3.8 | 9.3 | 3.1 | 6.9
O=C(c1cc(Cc2n[nH]c(=O)c3ccccc23)ccc1F)N1CCN(C(=O)C2CC2)CC1 [Olaparib] (tested concentration range 1-10000 nM) | 5.8 | 3.8 | 4.7 | 3 | 6.8 | 4.5 | 3.5 | 4.1 | 4.4 | 6.4 | 4.5
COC(=O)C[C@](O)(CCCC(C)(C)O)C(=O)O[C@@H]1C(OC)=C[C@]23CCCN2CCc2cc4c(cc2[C@H]13)OCO4 [Omacetaxine] (tested concentration range 1-10000 nM) | 35 | 19.1 | 21.9 | 20.6 | 15.3 | 18.7 | 20 | 21.4 | 29.2 | 22 | 25.2
CC1(C)CC[C@]2(NC(=O)C(C)(F)F)CC[C@]3(C)[C@H](C(=O)C=C4[C@@]5(C)C=C(C#N)C(=O)C(C)(C)[C@@H]5CC[C@]43C)[C@@H]2C1 [Omaveloxolone] (tested concentration range 1-10000 nM) | 14.4 | 19.8 | 23.2 | 4.6 | 17 | 18.5 | 5.3 | 4.8 | 23.9 | 14.8 | 18.4
CC(C)c1cc(C(=O)N2Cc3ccc(CN4CCN(C)CC4)cc3C2)c(O)cc1O [Onalespib] (tested concentration range 0.2-2500 nM) | 18 | 10 | 12.1 | 11.8 | 7.8 | 8.6 | 10.5 | 11.2 | 18.2 | 11.6 | 21.1
O=C(NCc1ccncc1)C12CC3CC(C1)CC(c1ccc(Cl)cc1)(C3)C2 [Opaganib] (tested concentration range 5-50000 nM) | 5.9 | 2.7 | 4.4 | 1.2 | 4.1 | 0.7 | 0.7 | 0.4 | 8.6 | 3.8 | 6.8
COC[C@H](NC(=O)c1cnc(C)s1)C(=O)N[C@@H](COC)C(=O)N[C@@H](Cc1ccccc1)C(=O)[C@@]1(C)CO1 [Oprozomib] (tested concentration range 0.2-2500 nM) | 20.7 | 14 | 16 | 10.3 | 11.4 | 13.1 | 10.5 | 9.7 | 20.8 | 14.6 | 25.7
C=CC(=O)Nc1cc(Nc2nccc(-c3cn(C)c4ccccc34)n2)c(OC)cc1N(C)CCN(C)C [Osimertinib] (tested concentration range 0.2-2500 nM) | 5.9 | 3.4 | 5 | 5.4 | 3.7 | 4.8 | 3 | 4.2 | 6.4 | 1.9 | 4.6
O=C(O)C(=O)O.[NH-][C@@H]1CCCC[C@H]1[NH-].[Pt+2] [Oxaliplatin] (tested concentration range 10-100000 nM) | 13.8 | 9.7 | 10.6 | 8.3 | 9.1 | 9.4 | 7.3 | 7.4 | 26.1 | 8.8 | 9
C=CCc1cccc(/C=N/NC(=O)CN2CCN(Cc3ccccc3)CC2)c1O [PAC-1] (tested concentration range 1-10000 nM) | 4.4 | 0.3 | 3.6 | 1.9 | 0.2 | 1.5 | 1.9 | 2 | 3.9 | 3.9 | 6.9
O=C(Nc1cccnc1)N1CCC(Cc2cccc(Oc3ccc(C(F)(F)F)cn3)c2)CC1 [PF-3845] (tested concentration range 1-10000 nM) | 2.3 | 0 | 0 | 0.2 | 0 | 0 | 0 | 0 | 3.3 | 3 | 4.6

Source: the supplement of paper PMC12592484
